Patent publication US9439961B2, “Pharmaceutical composition for treating ischemic events” (Niigata University, priority 2009, dated 2016)

Assays:
[1] = system: cerebral infarction rat model; test: Cerebral infarction rat model (thrombus injection): infarct and edema volume of TTC-stained cerebral coronal section; type: in vivo, Sprague-Dawley rats
Source text: Sprague-Dawley rats (male, 8 weeks old, obtained from Charles River Laboratories Japan, Inc.) were used to produce cerebral infarction rat models.
(§1) In the present examples, a cerebral infarction rat model shown in FIG. 1B was produced in order to realize a state where cerebral hemorrhage concomitantly occurs as a result of administration of a thrombolytic agent after the therapeutic time window of the thrombolytic therapy. A thrombus was formed by coagulating rat's autologous blood and thrombin as a gel in a polyethylene tube catheter having a diameter of 0.35 mm (PE-50, product of Becton, Dickinson and Company). The formed thrombus was left to stand overnight and then cut to have a length of 1 mm Using the catheter, the thrombus was injected from the external carotid artery (ECA) 1 to the middle cerebral artery (MCA) 2 of the rat under anesthesia with halothane at 1% by mass to 1.5% by mass. Thereafter, the thus-treated rat was measured for cerebral blood flow (CBF) using a laser Doppler flowmetry (AFL21, product of ADVANCE Co., Ltd., Tokyo) before and 30 min or 24 hours after injection of the thrombus.
In the thrombolytic therapy for the cerebral infarction rat models, t-PA serving as a thrombolytic agent (alteplase, product of Mitsubishi Tanabe Pharma Corporation) was injected for 30 min to the femoral vein of each cerebral infarction rat model 1 hour or 4 hours after the injection of the thrombus (10 mg/kg, 10% bolus administration and 90% drip infusion).
Twenty-four hours after the injection of the thrombus, halothane was excessively administered to the rats for euthanasia which were then perfused with PBS, to thereby prepare an unfixed cerebral coronal section.
The cerebral coronal section was stained with TTC at 37° C. for 15 min in PBS (pH 7.4) containing a triphenyltetrazolium salt (TTC) at 2% by mass, and then scanned with a scanner (CanoScan™, product of Canon Co.).
The cerebral infarction and the volume of edema were calculated according to Swanson, R. A., et al. (J. Cereb. Blood Flow Metab. (1990) 10:290-293).
(§2) The combined administration of the t-PA and the anti-VEGF antibody was performed as described in Example 2. The effects of the combined administration of the t-PA and the anti-VEGF antibody four hours after the onset of cerebral infarction induced by injection of the thrombus were evaluated by measuring the cerebral infarct volume, edema volume, cerebral hemorrhage volume, and motor function scale of the TTC-stained cerebral coronal section prepared 24 hours after the onset of cerebral infarction induced by injection of the thrombus.
The cerebral infarct volume and the edema volume of the TTC-stained cerebral coronal section were calculated according to Swanson, R. A., et al. (J. Cereb. Blood Flow Metab. (1990) 10:290-293). The statistical significance was validated by ANOVA (analysis of variance), and post hoc comparisons were performed by the Tukey method.

[2] = system: cerebral infarction rat model; test: Cerebral hemorrhage volume (hemoglobin concentration, spectrophotometer) in cerebral infarction rat model; type: in vivo, Sprague-Dawley rats; details: SU1498 20 mg/kg in DMSO single bolus with t-PA four hours after onset; 24 h after onset; vs t-PA and DMSO; P=0.005 (FIG. 5C)
Source text: as §1, with “The formed thrombus was left to stand overnight and then cut to have a length of 1 mm Using the catheter, the thrombus was injected from the external carotid artery (ECA) 1 to the middle cerebral artery (MCA) 2 of the rat under anesthesia with halothane at 1% by mass to 1.5% by mass.” left out, “thrombus. […]” for “thrombus.”
as §2, with “thrombus. […]” for “thrombus.”

[3] = system: cerebral infarction rat model; test: Motor function scale (5 grades) in cerebral infarction rat model; type: in vivo, Sprague-Dawley rats; details: 24 h after onset
VEGF = test: Western blotting of VEGF expression in cerebral infarction rat model; type: in vivo; details: t-PA (with control antibody) four hours after onset of cerebral infarction (FIG. 3)
Description: In order to suppress or reduce concomitantly occurring cerebral hemorrhage and cerebral infarction exacerbation accompanied with the administration of the t-PA after an acute stage of cerebral infarction in human, 100 μg of rabbit anti-rat VEGF antibody IgG (RB-222, product of Lab Vision-NeoMarkers, hereinafter “anti-VEGF antibody”) was bolus administered together with the t-PA. In the control experiment, 100 μg of rabbit anti-human IgG (R5G10-048, product of OEM Concepts, hereinafter “control antibody”) was bolus administered together with the t-PA.
Using the total cell extract as a sample, western blotting was performed according to the method described in Shimohata, T., et al. (J. Cereb. Blood Flow Metab. (2007) 27:1463-1475).
The VEGF was detected using anti-VEGF antibody (SC-152, product of Santa Cruz Biotechnologies, dilution ratio: 1:200) as a primary antibody, and peroxidase-conjugated anti-rabbit IgG antibody (dilution ratio: 1:10,000) as a secondary antibody.
Also, in order to confirm that the amounts of the protein applied were uniform in all the samples, β-actin was detected by allowing anti-β-actin (SC-1616, product of Santa Cruz Biotechnologies, dilution ratio: 1:2,000) and the above secondary antibody to react on the blotting membrane from which the primary and secondary antibodies had been removed. […]

[4] = t-PA 10 mg/kg i.v. four hours after injection of thrombus, vs t-PA one hour after (FIG. 2C)

Molecule: CC(C)c1cc(/C=C(\C#N)C(=O)NCCCc2ccccc2)cc(C(C)C)c1O [SU1498, (E)-3-(3,5-diisopropyl-4-hydroxyphenyl)-2-((3-phenyl-n-propyl)amino-carbonyl)acrylonitrile]
- cerebral infarct volume ([1]; SU1498 20 mg/kg in DMSO single bolus with t-PA four hours after onset, 24 h after onset, vs t-PA and DMSO, n=6 (FIG. 5A)): could not reduce
- edema volume ([1]; SU1498 20 mg/kg in DMSO single bolus with t-PA four hours after onset, 24 h after onset, vs t-PA and DMSO, n=6 (FIG. 5B)): could not reduce
- cerebral hemorrhage volume (hemoglobin concentration) [2]: could reduce
- motor function scale (prognosis) ([3]; SU1498 20 mg/kg with t-PA four hours after onset, vs t-PA and DMSO, n=10 (FIG. 5D)): better in prognosis

Molecule: t-PA: t-PA serving as a thrombolytic agent (alteplase, product of Mitsubishi Tanabe Pharma Corporation)
- area where cerebral infarction occurred [1, 4]: enlargement
- hemorrhage in the area where cerebral infarction occurred [1, 4]: considerably observed
- area where cerebral infarction occurred ([1]; t-PA 10 mg/kg i.v. one hour after injection of thrombus, section 24 h after, vs animal receiving no t-PA (FIG. 2B)): smaller
- expression level of the VEGF (western blot) (VEGF): considerably increase
- motor function scale (prognosis) ([3]; t-PA and control antibody four hours after onset, vs control antibody only (FIG. 4D)): worse in prognosis
